{"source": "paper PMC5520195", "about": "(Acta Pharmacologica Sinica, 2017)", "key": {"[1]": {"experiment": "Plasma pharmacokinetics of DOX after iv administration", "assay_type": "in vivo", "details": "DOX in plasma, BALB/c mice, 5 mg DOX/kg"}, "[2]": {"system": "4T1.2 mouse breast cancer cells", "experiment": "MTT cytotoxicity assay", "assay_type": "cell-based", "details": "4T1.2 cells, 72 h"}}, "data": [{"smiles": "COc1cccc2c1C(=O)c1c(O)c3c(c(O)c1C2=O)C[C@@](O)(C(=O)CO)C[C@@H]3O[C@H]1C[C@H](N)[C@H](O)[C@H](C)O1", "note": "[DOX, doxorubicin]", "values": [{"measurement": "AUC0–infinity", "setting": "[1]", "result": 2930, "unit": "ng·h/mL"}, {"measurement": "CL", "setting": "[1]", "result": 28.8, "unit": "mL/min/kg"}, {"measurement": "Cmax", "setting": "[1]", "result": 6270, "unit": "ng/mL"}, {"measurement": "cytotoxicity (MTT)", "setting": "[2]", "result": "cytotoxic effect on tumor cells in a concentration-dependent manner"}]}]}
